Laboratory results published in US10239843B2 (CANCER RESEARCH TECHNOLOGY LIMITED, priority 2014, dated 2019).
Where two headings read alike, the source gives them in different places.

Tests used:
[1] = target: Human Full Length PARG (Homo sapiens (Human), UniProt Q86W56); assay: PARG enzyme assay (TR-FRET); type: biochemical; conditions: read-out: PARG Biochem IC50
[2] = test system: PARG in HeLa cell line; assay: PARG cell assay (PAR chain immunofluorescence after MMS); type: cell-based; conditions: HeLa cells, MMS treatment, read-out: PARG Cell IC50
In short: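 HeLa cells were dosed with compound for 1 h, then given MMS at 50 μg/mL final for a further hour. Cells were methanol-fixed, permeabilised and stained overnight at 4° C with anti-PAR monoclonal antibody. Retained nuclear PAR chains, detected by indirect immunofluorescence, indicate PARG inhibition.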

Sequence of Human Full Length PARG (Q86W56 whole entry): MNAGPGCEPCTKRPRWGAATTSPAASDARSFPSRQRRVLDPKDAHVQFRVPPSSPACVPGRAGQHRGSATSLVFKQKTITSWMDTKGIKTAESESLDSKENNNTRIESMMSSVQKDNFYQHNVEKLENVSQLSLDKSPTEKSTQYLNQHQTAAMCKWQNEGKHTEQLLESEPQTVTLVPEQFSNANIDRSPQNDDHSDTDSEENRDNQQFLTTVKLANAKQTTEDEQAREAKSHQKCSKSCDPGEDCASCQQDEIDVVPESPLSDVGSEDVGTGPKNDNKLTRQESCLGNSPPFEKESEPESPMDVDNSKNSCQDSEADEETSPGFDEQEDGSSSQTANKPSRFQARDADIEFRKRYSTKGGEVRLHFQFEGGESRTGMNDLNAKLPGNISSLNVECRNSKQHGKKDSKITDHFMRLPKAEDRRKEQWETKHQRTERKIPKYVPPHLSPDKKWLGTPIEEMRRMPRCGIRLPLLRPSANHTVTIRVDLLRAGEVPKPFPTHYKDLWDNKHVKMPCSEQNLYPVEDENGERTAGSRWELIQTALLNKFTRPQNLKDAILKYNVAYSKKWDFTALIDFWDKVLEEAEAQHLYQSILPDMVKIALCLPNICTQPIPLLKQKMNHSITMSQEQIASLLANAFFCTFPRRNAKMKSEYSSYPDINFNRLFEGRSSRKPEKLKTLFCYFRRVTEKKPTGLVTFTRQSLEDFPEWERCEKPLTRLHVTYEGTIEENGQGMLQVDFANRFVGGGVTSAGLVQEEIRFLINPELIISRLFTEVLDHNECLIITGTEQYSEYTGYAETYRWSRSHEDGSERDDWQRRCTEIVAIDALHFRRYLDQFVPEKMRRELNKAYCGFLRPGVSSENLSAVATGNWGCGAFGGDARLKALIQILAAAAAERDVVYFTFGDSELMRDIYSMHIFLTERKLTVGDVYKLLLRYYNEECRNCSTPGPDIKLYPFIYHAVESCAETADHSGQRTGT

Row | Compound | IC50 [1] [nM] | IC50 ([2]; Homo sapiens) [nM] | IC50 [2] [nM]
1 | Cc1cc(Cn2c(=O)c3cc(S(=O)(=O)NC4(C)CC4)ccc3n(CCC(=O)N(C)C)c2=O)on1 [Example 406, N, N-Dimethyl-3-[6-[(1-methylcyclopropyl)sulfamoyl]-3-[(3-methylisoxazol-5-yl)methyl]-2,4-dioxo-quinazolin-1-yl]propanamide] | 456 | 800 | 
2 | Cn1cc(Cn2c(=O)c3cc(S(=O)(=O)NC4(CF)CC4)ccc3n(C)c2=O)cn1 [Example 408, N-[1-(Fluoromethyl)cyclopropyl]-1-methyl-3-[(1-methylpyrazol-4-yl)methyl]-2,4-dioxo-quinazoline-6-sulfonamide] | 648 | 287 | 
3 | COC(C)(C)Cn1c(=O)n(Cc2cc(C)no2)c(=O)c2cc(S(=O)(=O)NC3(C)CC3)ccc21 [Example 413, 1-(2-Methoxy-2-methyl-propyl)-N-(1-methylcyclopropyl)-3-[(3-methylisoxazol-5-yl)methyl]-2,4-dioxo-quinazoline-6-sulfonamide] | 469 | 305 | 
4 | Cc1cc(Cn2c(=O)c3cc(S(=O)(=O)NC4(C)CC4)ccc3n(CC(=O)N3CCC3)c2=O)on1 [Example 414, 1-[2-(Azetidin-1-yl)-2-oxo-ethyl]-N-(1-methylcyclopropyl)-3-[(3-methylisoxazol-5-yl)methyl]-2,4-dioxo-quinazoline-6-sulfonamide] | 2080 |  | 9220
5 | Cc1cc(Cn2c(=O)c3cc(S(=O)(=O)NC4(C)CC4)ccc3n(CC3CNC3)c2=O)on1 [Example 415, 1-(Azetidin-3-ylmethyl)-N-(1-methylcyclopropyl)-3-[(3-methylisoxazol-5-yl)methyl]-2,4-dioxo-quinazoline-6-sulfonamide] | 609 | 1440 | 
6 | Cc1cncc(Cn2c(=O)c3cc(S(=O)(=O)NC4(C)CC4)ccc3n(C)c2=O)c1 [Example 418, 1-Methyl-N-(1-methylcyclopropyl)-3-[(5-methyl-3-pyridyl)methyl]-2,4-dioxo-quinazoline-6-sulfonamide] | 2270 | 2110 | 
7 | Cn1cc(Cn2c(=O)[nH]c3c(Br)cc(S(=O)(=O)NC4(C)CC4)cc3c2=O)cn1 [Example 422, 8-Bromo-N-(1-methylcyclopropyl)-3-[(1-methylpyrazol-4-yl)methyl]-2,4-dioxo-1H-quinazoline-6-sulfonamide] | 512 | 611 | 
8 | Cc1ccc(Cn2c(=O)c3cc(S(=O)(=O)NC4(C)CC4)ccc3n(C)c2=O)cn1 [Example 423, 1-Methyl-N-(1-methylcyclopropyl)-3-[(6-methyl-3-pyridyl)methyl]-2,4-dioxo-quinazoline-6-sulfonamide] | 1600 | 1350 | 
9 | C#CC1(NS(=O)(=O)c2ccc3c(c2)c(=O)n(Cc2cnn(C)c2)c(=O)n3C)CC1 [Example 427, N-(1-Ethynylcyclopropyl)-1-methyl-3-[(1-methylpyrazol-4-yl)methyl]-2,4-dioxo-quinazoline-6-sulfonamide] | 5400 | 1260 | 
10 | CC(=O)NCc1cc(S(=O)(=O)NC2(C)CC2)cc2c(=O)n(Cc3cnn(C)c3)c(=O)[nH]c12 [Example 428, N-[[6-[(1-Methylcyclopropyl)sulfamoyl]-3-[(1-methylpyrazol-4-yl)methyl]-2,4-dioxo-1H-quinazolin-8-yl]methyl]acetamide] | 494 | 27000 | 
11 | CN(C)CC#Cc1cc(S(=O)(=O)NC2(C)CC2)cc2c(=O)n(Cc3cnn(C)c3)c(=O)[nH]c12 [Example 429, 8-[3-(Dimethylamino)prop-1-ynyl]-N-(1-methylcyclopropyl)-3-[(1-methylpyrazol-4-yl)methyl]-2,4-dioxo-1H-quinazoline-6-sulfonamide] | 1770 | 1520 | 
12 | C#CC1(NS(=O)(=O)c2ccc3[nH]c(=O)n(Cc4cnn(C)c4)c(=O)c3c2)CC1 [Example 431, N-(1-Ethynylcyclopropyl)-3-[(1-methylpyrazol-4-yl)methyl]-2,4-dioxo-1H-quinazoline-6-sulfonamide] | 3720 |  | 3030
13 | C#CC1(NS(=O)(=O)c2ccc3c(c2)c(=O)n(Cc2cnn(C)c2)c(=O)n3CC2CC2)CC1 [Example 432, 1-(Cyclopropylmethyl)-N-(1-ethynylcyclopropyl)-3-[(1-methylpyrazol-4-yl)methyl]-2,4-dioxo-quinazoline-6-sulfonamide] | 486 |  | 261

Stronger by IC50 [1], values ahead:

Row | IC50 [1] [nM] | IC50 ([2]; Homo sapiens) [nM] | IC50 [2] [nM] | Compound
14 | 8 | 101 |  | Cc1ncc(Cn2c(=O)c3cc(S(=O)(=O)NC4(C#N)CC4)ccc3n(Cc3sc(C)nc3C)c2=O)s1 [Example 401, N-(1-Cyanocyclopropyl)-1-[(2,4-dimethylthiazol-5-yl)methyl]-3-[(2-methylthiazol-5-yl)methyl]-2,4-dioxo-quinazoline-6-sulfonamide]
15 | 66 | 167 |  | Cc1ncc(Cn2c(=O)c3cc(S(=O)(=O)NC4(C#N)CC4)ccc3n(Cc3ccc(F)cc3)c2=O)s1 [Example 402, N-(1-Cyanocyclopropyl)-1-[(4-fluorophenyl)methyl]-3-[(2-methylthiazol-5-yl)methyl]-2,4-dioxo-quinazoline-6-sulfonamide]
16 | 84 |  | 265 | C#CCn1c(=O)n(Cc2cnc(C)s2)c(=O)c2cc(S(=O)(=O)NC3(C#N)CC3)ccc21 [Example 403, N-(1-Cyanocyclopropyl)-3-[(2-methylthiazol-5-yl)methyl]-2,4-dioxo-1-prop-2-ynyl-quinazoline-6-sulfonamide]
17 | 71 | 3860 |  | Cc1cc(Cn2c(=O)n(Cc3cnn(C)c3)c(=O)c3cc(S(=O)(=O)NC4(C#N)CC4)c(F)cc32)on1 [Example 404, N-(1-Cyanocyclopropyl)-7-fluoro-1-[(3-methylisoxazol-5-yl)methyl]-3-[(1-methylpyrazol-4-yl)methyl]-2,4-dioxo-quinazoline-6-sulfonamide]
18 | 248 | 144 |  | Cc1cc(Cn2c(=O)c3cc(S(=O)(=O)NC4(C)CC4)ccc3n(CC3CCC(F)(F)CC3)c2=O)on1 [Example 405, 1-[(4,4-Difluorocyclohexyl)methyl]-N-(1-methylcyclopropyl)-3-[(3-methylisoxazol-5-yl)methyl]-2,4-dioxo-quinazoline-6-sulfonamide]
19 | 394 | 625 |  | Cc1cc(Cn2c(=O)c3cc(S(=O)(=O)NC4(C)CC4)ccc3n(CCCO)c2=O)on1 [Example 407, 1-(3-Hydroxypropyl)-N-(1-methylcyclopropyl)-3-[(3-methylisoxazol-5-yl)methyl]-2,4-dioxo-quinazoline-6-sulfonamide]
20 | 263 | 126 |  | Cn1cc(Cn2c(=O)c3cc(S(=O)(=O)NC4(C)CC4)ccc3n(CCF)c2=O)cn1 [Example 410, 1-(2-Fluoroethyl)-N-(1-methylcyclopropyl)-3-[(1-methylpyrazol-4-yl)methyl]-2,4-dioxo-quinazoline-6-sulfonamide]
21 | 409 | 104 |  | Cc1cc(Cn2c(=O)c3cc(S(=O)(=O)NC4(C)CC4)ccc3n(CCF)c2=O)on1 [Example 411, 1-(2-Fluoroethyl)-N-(1-methylcyclopropyl)-3-[(3-methylisoxazol-5-yl)methyl]-2,4-dioxo-quinazoline-6-sulfonamide]
22 | 440 | 289 |  | Cc1cc(Cn2c(=O)c3cc(S(=O)(=O)NC4(C)CC4)ccc3n(CC3CC(=O)C3)c2=O)on1 [Example 412, N-(1-Methylcyclopropyl)-3-[(3-methylisoxazol-5-yl)methyl]-2,4-dioxo-1-[(3-oxocyclobutyl)methyl]quinazoline-6-sulfonamide]
23 | 430 |  | 1320 | Cn1cc(Cn2c(=O)[nH]c3ccc(S(=O)(=O)NC4(CF)CC4)cc3c2=O)cn1 [Example 416, N-[1-(Fluoromethyl)cyclopropyl]-3-[(1-methylpyrazol-4-yl)methyl]-2,4-dioxo-1H-quinazoline-6-sulfonamide]
24 | 40 | 42 |  | Cn1cc(Cn2c(=O)c3cc(S(=O)(=O)NC4(CF)CC4)ccc3n(CC3CC3)c2=O)cn1 [Example 417, 1-(Cyclopropylmethyl)-N-[1-(fluoromethyl)cyclopropyl]-3-[(1-methylpyrazol-4-yl)methyl]-2,4-dioxo-quinazoline-6-sulfonamide]
25 | 106 | 118 |  | Cn1cc(Cn2c(=O)c3cc(S(=O)(=O)NC4(CF)CC4)ccc3n(Cc3ccc(F)cc3)c2=O)cn1 [Example 419, N-[1-(Fluoromethyl)cyclopropyl]-1-[(4-fluorophenyl)methyl]-3-[(1-methylpyrazol-4-yl)methyl]-2,4-dioxo-quinazoline-6-sulfonamide]
26 | 140 | 163 |  | Cc1cc(Cn2c(=O)c3cc(S(=O)(=O)NC4(C)CC4)ccc3n(CC3(C#N)CC3)c2=O)on1 [Example 420, 1-[(1-Cyanocyclopropyl)methyl]-N-(1-methylcyclopropyl)-3-[(3-methylisoxazol-5-yl)methyl]-2,4-dioxo-quinazoline-6-sulfonamide]
27 | 193 |  | 589 | Cc1cc(Cn2c(=O)c3cc(S(=O)(=O)NC4(C)CC4)ccc3n(CC3CCC(=O)CC3)c2=O)on1 [Example 421, N-(1-Methylcyclopropyl)-3-[(3-methylisoxazol-5-yl)methyl]-2,4-dioxo-1-[(4-oxocyclohexyl)methyl]quinazoline-6-sulfonamide]
28 | 223 | 13000 |  | Cn1cc(Cn2c(=O)[nH]c3c(C(N)=O)cc(S(=O)(=O)NC4(C)CC4)cc3c2=O)cn1 [Example 424, 6-[(1-Methylcyclopropyl)sulfamoyl]-3-[(1-methylpyrazol-4-yl)methyl]-2,4-dioxo-1H-quinazoline-8-carboxamide]
29 | 214 | 7810 |  | Cc1cc(Cn2c(=O)c3cc(S(=O)(=O)NC4(C)CC4)ccc3n(CC3CN(C=O)C3)c2=O)on1 [Example 425, 1-[(1-Formylazetidin-3-yl)methyl]-N-(1-methylcyclopropyl)-3-[(3-methylisoxazol-5-yl)methyl]-2,4-dioxo-quinazoline-6-sulfonamide]
